Measurements published in EP3033337B1, “SUBSTITUTED IMIDAZOLES AS N-TYPE CALCIUM CHANNEL BLOCKERS” (Janssen Pharmaceutica NV, priority 2013, dated 2015).
Where two headings read alike, the source gives them in different places.

Key:
human N-type Ca channel [1] = biological target: T1, human N-type Ca channel (Homo sapiens, UniProt Q00975); experiment: Calcium influx assay (FDSS), KCl depolarization, Fluo8 dye; type: cell-based; design: host or cells: HEK 293; settings: HEK 293 cells expressing human N-type Ca channel; 100 mM KCl; read-out: N Type IC50 Data FDSS
Summary of the method: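 HEK293 cells stably expressing the human N-type Ca channel were loaded with Fluo8 and washed in choline-based buffer (pH 7.2, 2 mM CaCl2, 2 mM KCl). Cells were preincubated with serially diluted compound for 15 min in the dark. Ca influx was then recorded by fluorescence after depolarization with 100 mM KCl.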

human N-type Ca channel [2] = biological target: T1, human N-type Ca channel; experiment: Electrophysiological response, QPatch (depolarization -80 mV to +20 mV)
Experimental: The recombinant cell line described above was used in the measurement of electrophysiological properties with QPatch (Sophion). Cells were maintained in culture as mentioned above. Prior to the experiment, the flasks were moved to 30 °C and incubated for 48-72 hrs. On the day of assaying, cells were detached and harvested. The cell pellet was re-suspended in SMF4HEK (HyClone)/25mM HEPS at 2-5 million/ mL and placed on the QStirrer of the QPatch for 30-60 min prior to the start of the assay. […] Microtiter-Plate/Reference Buffer contained 140 mM TEA-Cl, 10mM BaCl2, 0.8 mM MgCl2, 10 mM HEPES pH ∼7.4 adjusted with TEA-OH/HCl, and ∼300mOsm. Cells were transferred to a QPatch 48 plate and gigaseal was formed. The plate was perfused with intracellular and extracellular buffer. […] In brief, cells were depolarized from resting potential of -80 mV to +20 mV and current was recorded. Data was plotted as percent inhibition vs concentration of the compound and IC50 values were generated using Graphpad Prism non-linear regression analysis.

[3] = N Type IC50 Data Qpatch Pulse=1, Pulse=1, concentration range 0.3-10 µM
[4] = read-out: Qpatch Pulse=15 (percent inhibition)
[5] = N Type IC50 Data Qpatch Pulse=1, Pulse=1, concentration range 0.01-1 µM
[6] = N Type IC50 Data Qpatch Pulse=15, Pulse=15, concentration range 0.3-10 µM
[7] = read-out: Qpatch Pulse=1 (percent inhibition)

T1 sequence (Q00975 whole entry): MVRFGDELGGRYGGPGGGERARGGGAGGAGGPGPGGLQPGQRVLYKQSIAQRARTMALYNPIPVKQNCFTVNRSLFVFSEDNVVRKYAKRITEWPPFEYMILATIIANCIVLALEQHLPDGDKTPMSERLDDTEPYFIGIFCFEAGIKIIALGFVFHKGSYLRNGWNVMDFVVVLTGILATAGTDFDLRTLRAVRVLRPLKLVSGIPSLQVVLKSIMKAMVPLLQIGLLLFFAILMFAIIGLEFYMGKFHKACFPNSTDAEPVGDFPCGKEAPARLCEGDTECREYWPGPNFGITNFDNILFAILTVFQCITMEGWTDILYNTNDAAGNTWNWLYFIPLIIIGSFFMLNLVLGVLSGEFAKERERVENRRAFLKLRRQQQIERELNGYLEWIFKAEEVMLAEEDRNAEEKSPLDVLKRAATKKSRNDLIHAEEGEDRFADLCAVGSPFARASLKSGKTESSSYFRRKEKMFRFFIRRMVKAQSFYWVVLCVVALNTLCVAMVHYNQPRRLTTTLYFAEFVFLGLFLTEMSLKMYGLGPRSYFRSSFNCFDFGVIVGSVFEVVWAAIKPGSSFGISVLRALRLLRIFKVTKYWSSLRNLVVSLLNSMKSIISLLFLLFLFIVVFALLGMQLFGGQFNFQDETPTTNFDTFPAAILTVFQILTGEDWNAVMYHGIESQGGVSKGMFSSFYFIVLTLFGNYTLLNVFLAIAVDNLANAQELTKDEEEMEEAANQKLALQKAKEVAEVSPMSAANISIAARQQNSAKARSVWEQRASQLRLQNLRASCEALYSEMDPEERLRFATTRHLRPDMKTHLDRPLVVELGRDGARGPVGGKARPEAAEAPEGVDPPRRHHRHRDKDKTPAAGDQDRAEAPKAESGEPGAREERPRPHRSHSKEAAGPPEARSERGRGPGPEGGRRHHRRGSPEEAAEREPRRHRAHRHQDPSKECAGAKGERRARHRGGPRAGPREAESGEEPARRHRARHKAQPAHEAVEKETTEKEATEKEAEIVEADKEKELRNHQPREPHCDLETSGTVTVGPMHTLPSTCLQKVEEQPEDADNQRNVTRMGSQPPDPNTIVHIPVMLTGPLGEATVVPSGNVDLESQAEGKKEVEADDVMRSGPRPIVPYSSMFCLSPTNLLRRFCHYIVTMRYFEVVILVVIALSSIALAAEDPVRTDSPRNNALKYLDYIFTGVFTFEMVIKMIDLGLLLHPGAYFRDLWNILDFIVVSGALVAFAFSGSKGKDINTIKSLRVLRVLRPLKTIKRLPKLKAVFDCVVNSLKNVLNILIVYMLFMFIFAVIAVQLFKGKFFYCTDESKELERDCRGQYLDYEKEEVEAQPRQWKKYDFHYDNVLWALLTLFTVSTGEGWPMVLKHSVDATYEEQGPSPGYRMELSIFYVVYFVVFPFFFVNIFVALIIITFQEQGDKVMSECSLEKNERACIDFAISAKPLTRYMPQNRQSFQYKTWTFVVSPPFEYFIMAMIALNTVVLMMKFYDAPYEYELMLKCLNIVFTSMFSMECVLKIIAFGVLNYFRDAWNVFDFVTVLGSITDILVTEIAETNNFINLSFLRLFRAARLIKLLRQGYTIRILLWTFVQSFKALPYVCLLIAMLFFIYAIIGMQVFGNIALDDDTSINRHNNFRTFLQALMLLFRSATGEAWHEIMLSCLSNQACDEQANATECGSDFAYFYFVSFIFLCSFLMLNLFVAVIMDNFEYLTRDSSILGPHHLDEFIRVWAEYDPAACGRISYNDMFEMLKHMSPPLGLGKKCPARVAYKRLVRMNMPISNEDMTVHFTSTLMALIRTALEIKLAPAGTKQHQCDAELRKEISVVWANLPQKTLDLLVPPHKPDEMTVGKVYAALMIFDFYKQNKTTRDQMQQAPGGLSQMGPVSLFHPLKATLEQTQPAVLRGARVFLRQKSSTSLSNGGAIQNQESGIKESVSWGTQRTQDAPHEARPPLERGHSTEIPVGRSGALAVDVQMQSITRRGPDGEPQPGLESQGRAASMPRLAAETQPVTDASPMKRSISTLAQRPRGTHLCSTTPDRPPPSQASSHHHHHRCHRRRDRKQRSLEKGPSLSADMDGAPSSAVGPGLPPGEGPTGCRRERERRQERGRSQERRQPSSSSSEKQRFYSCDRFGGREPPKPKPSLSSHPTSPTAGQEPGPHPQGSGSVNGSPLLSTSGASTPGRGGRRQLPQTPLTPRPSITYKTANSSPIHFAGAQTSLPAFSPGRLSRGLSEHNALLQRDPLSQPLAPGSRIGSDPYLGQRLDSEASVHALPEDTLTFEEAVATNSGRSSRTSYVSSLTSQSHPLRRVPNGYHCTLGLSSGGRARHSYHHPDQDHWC
T1 sequence (P54284 whole entry partner): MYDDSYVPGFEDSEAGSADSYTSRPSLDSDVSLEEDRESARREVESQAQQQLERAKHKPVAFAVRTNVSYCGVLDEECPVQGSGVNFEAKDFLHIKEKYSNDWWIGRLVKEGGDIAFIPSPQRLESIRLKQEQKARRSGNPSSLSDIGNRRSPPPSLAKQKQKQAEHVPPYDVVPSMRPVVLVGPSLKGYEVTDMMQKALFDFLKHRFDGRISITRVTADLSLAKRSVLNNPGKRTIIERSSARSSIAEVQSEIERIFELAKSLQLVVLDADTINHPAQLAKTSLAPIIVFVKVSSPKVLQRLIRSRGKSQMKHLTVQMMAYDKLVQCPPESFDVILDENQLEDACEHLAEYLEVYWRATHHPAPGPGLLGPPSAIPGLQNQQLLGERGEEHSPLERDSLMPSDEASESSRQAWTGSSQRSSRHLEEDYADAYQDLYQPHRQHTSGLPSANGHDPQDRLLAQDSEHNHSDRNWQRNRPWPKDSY
T1 sequence (P54289 25-956 partner limits assumed): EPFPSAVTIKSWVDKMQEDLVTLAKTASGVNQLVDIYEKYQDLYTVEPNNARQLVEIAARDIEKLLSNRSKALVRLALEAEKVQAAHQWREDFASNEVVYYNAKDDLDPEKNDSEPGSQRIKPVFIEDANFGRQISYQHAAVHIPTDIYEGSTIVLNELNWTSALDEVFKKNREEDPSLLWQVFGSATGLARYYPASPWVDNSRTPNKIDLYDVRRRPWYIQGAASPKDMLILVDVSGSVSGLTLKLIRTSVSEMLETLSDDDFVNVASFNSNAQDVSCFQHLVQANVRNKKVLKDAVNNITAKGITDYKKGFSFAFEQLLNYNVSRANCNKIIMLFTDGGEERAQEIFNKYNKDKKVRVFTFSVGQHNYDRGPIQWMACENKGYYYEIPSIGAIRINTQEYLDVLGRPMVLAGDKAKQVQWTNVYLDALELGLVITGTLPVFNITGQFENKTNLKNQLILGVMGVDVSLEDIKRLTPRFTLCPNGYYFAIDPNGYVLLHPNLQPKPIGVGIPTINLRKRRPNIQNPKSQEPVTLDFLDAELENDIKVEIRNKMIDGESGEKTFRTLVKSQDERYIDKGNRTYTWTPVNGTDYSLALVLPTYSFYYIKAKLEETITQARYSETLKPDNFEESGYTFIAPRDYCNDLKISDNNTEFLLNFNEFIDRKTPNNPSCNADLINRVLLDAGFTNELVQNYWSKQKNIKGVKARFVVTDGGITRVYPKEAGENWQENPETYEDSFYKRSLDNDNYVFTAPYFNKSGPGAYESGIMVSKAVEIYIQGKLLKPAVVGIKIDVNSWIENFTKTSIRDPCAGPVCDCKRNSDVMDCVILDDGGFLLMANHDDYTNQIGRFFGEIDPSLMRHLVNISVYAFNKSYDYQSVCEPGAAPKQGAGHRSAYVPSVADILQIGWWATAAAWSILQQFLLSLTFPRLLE
T1 sequence (P54289 957-1103 partner limits assumed): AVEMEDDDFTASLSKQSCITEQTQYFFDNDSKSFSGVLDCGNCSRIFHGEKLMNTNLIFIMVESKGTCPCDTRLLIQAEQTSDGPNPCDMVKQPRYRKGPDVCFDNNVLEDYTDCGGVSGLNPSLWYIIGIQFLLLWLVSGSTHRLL

| SMILES | IC50 (human N-type Ca channel [1]) [µM] | IC50 (human N-type Ca channel [2]; [3]) [µM] | inhibition at 10 µM (human N-type Ca channel [2]; [4]) [%] | IC50 (human N-type Ca channel [2]; [5]) [µM] | IC50 (human N-type Ca channel [2]; [6]) [µM] | IC50 (human N-type Ca channel [2]; read-out: N Type IC50 Data Qpatch Pulse=15, Pulse=15, concentration range 0.01-1 µM) [µM] | inhibition at 10 µM (human N-type Ca channel [2]; [7]) [%] | IC50 (human N-type Ca channel [2]; N Type IC50 Data Qpatch Pulse=15, Pulse=15, concentration range 0.01-1 µM) [µM] |
| --- | --- | --- | --- | --- | --- | --- | --- | --- |
| COc1ccncc1-c1nc(C2(O)CC(C)(C)OC(C)(C)C2)cn1-c1ccc(Cl)cc1 [Compound 103, 4-(1-(4-chlorophenyl)-2-(4-methoxypyridin-3-yl)-1H-imidazol-4-yl)-2,2,6,6-tetramethyltetrahydro-2H-pyran-4-ol] | 0.367 | 4.3 | 31 | – | – | – | – | – |
| COc1ncccc1-c1nc(C2(O)CC(C)(C)OC(C)(C)C2)cn1-c1ccc(Cl)cc1 [Compound 105, 4-(1-(4-chlorophenyl)-2-(2-methoxypyridin-3-yl)-1H-imidazol-4-yl)-2,2,6,6-tetramethyltetrahydro-2H-pyran-4-ol] | 0.3 | 8.3 | – | 0.964 | 3.82 | > 1 | – | – |
| COc1ccccc1-c1nc(C2(O)CC(C)(C)OC(C)(C)C2)cn1-c1ccc(F)c(F)c1 [Compound 107, 4-(1-(3,4-difluorophenyl)-2-(2-methoxyphenyl)-1H-imidazol-4-yl)-2,2,6,6-tetramethyltetrahydro-2H-pyran-4-ol] | 0.43 | 3.53 | – | – | 2.42 | – | – | – |
| COc1ncccc1-c1nc(C2(O)CC(C)(C)OC(C)(C)C2)cn1-c1ccc(F)c(F)c1 [Compound 108, 4-(1-(3,4-difluorophenyl)-2-(2-methoxypyridin-3-yl)-1H-imidazol-4-yl)-2,2,6,6-tetramethyltetrahydro-2H-pyran-4-ol] | 0.394 | 5.8 | – | – | 7.4 | – | – | – |
| COc1ccccc1-c1nc(C2(O)CC(C)(C)OC(C)(C)C2)cn1-c1ccc(C(F)(F)F)nc1 [Compound 109, 4-(2-(2-methoxyphenyl)-1-(6-(trifluoromethyl)pyridin-3-yl)-1H-imidazol-4-yl)-2,2,6,6-tetramethyltetrahydro-2H-pyran-4-ol] | 0.322 | 4.5 | – | – | 7.9 | – | – | – |
| COc1ncccc1-c1nc(C2(O)CC(C)(C)OC(C)(C)C2)cn1-c1ccc(F)c(Cl)c1 [Compound 110, 4-(1-(3-chloro-4-fluorophenyl)-2-(2-methoxypyridin-3-yl)-1H-imidazol-4-yl)-2,2,6,6-tetramethyltetrahydro-2H-pyran-4-ol] | 0.385 | – | 30 | – | – | – | 44 | – |
| COc1ccccc1-c1nc(C2(O)CC(C)(C)OC(C)(C)C2)cn1-c1ccc(F)c(Cl)c1 [Compound 111, 4-(1-(3-chloro-4-fluorophenyl)-2-(2-methoxyphenyl)-1H-imidazol-4-yl)-2,2,6,6-tetramethyltetrahydro-2H-pyran-4-ol] | 0.257 | – | – | – | 2.5 | – | 62 | – |
| COc1ccccc1-c1nc(C2(O)CC(C)(C)OC(C)(C)C2)cn1-c1ccc(Cl)c(F)c1 [Compound 112, 4-(1-(4-chloro-3-fluorophenyl)-2-(2-methoxyphenyl)-1H-imidazol-4-yl)-2,2,6,6-tetramethyltetrahydro-2H-pyran-4-ol] | 0.041 | 2.5 | – | – | 3 | – | – | – |
| COc1ncccc1-c1nc(C2(O)CC(C)(C)OC(C)(C)C2)cn1-c1ccc(Cl)c(F)c1 [Compound 113, 4-(1-(4-chloro-3-fluorophenyl)-2-(2-methoxypyridin-3-yl)-1H-imidazol-4-yl)-2,2,6,6-tetramethyltetrahydro-2H-pyran-4-ol] | 0.083 | 4.4 | – | – | 7.8 | – | – | – |
| CCOc1ncccc1-c1nc(C2(O)CC(C)(C)OC(C)(C)C2)cn1-c1ccc(Cl)cc1 [Compound 114, 4-(1-(4-chlorophenyl)-2-(2-ethoxypyridin-3-yl)-1H-imidazol-4-yl)-2,2,6,6-tetramethyltetrahydro-2H-pyran-4-ol] | 0.607 | – | – | 0.668 | – | – | – | > 1 |
| COc1ccccc1-c1nc(C2(O)CC(C)(C)OC(C)(C)C2)cn1-c1ccc(F)c(C#N)c1 [Compound 117, 2-fluoro-5-(4-(4-hydroxy-2,2,6,6-tetramethyltetrahydro-2H-pyran-4-yl)-2-(2-methoxyphenyl)-1H-imidazol-1-yl)benzonitrile] | 1.44 | – | 25 | – | – | – | 40 | – |
